# Measurements from ChEMBL document CHEMBL6087437 (J Med Chem, 2025).
# Activity calls are given as the source filed them. No cut-off for these calls is given here.
# What was measured:
# Ebolavirus [1] = experiment: Antiviral activity against pseudotyped Ebola virus expressing glycoprotein infected in human A549 cells assessed as inhibition of viral entry incubated for 48 hrs by Neolite reporter gene assay; format: functional, organism-based; conditions: Orthoebolavirus, A549, 48 h
# Marburgvirus = experiment: Antiviral activity against pseudotyped Marburg virus expressing glycoprotein infected in human A549 cells assessed as inhibition of viral entry incubated for 48 hrs by Neolite reporter gene assay; format: functional, organism-based; conditions: Orthomarburgvirus, A549, 48 h
# [2] = Selectivity index, ratio of CC50 for human A549 cells to EC50 for pseudotyped Ebola virus expressing glycoprotein infected in human A549 cells; format: toxicity, cell-based; conditions: read-out: Ratio CC50/EC50
# Ebolavirus [3] = experiment: Antiviral activity against wildtype Ebola virus infected in human HeLa cells incubated for 40 hrs by Hoechst 33342 staining based Cytation-1 automated microscopic analysis; format: functional, organism-based; conditions: Orthoebolavirus
# HeLa = experiment: Cytotoxicity against human HeLa cells by Celltiter-Glo luminescent cell viability assay; format: toxicity, cell-based
# [4] = Selectivity index, ratio of CC50 for human HeLa cells to EC50 for antiviral activity against wildtype Ebolavirus infected in human HeLa cells; format: toxicity, cell-based; conditions: read-out: Ratio CC50/EC50
# Zaire ebolavirus = experiment: Antiviral activity against pseudotyped Zaire ebolavirus expressing glycoprotein infected in human A549 cells assessed as inhibition of viral entry incubated for 48 hrs by Neolite reporter gene assay; format: functional, organism-based; conditions: A549, 48 h
# Sudan ebolavirus = experiment: Antiviral activity against pseudotyped Sudan ebolavirus expressing glycoprotein infected in human A549 cells assessed as inhibition of viral entry incubated for 48 hrs by Neolite reporter gene assay; format: functional, organism-based; conditions: A549, 48 h
# Bundibugyo virus = experiment: Antiviral activity against pseudotyped Bundibugyo ebolavirus expressing glycoprotein infected in human A549 cells assessed as inhibition of viral entry incubated for 48 hrs by Neolite reporter gene assay; format: functional, organism-based; conditions: A549, 48 h
# Reston ebolavirus = experiment: Antiviral activity against pseudotyped Reston ebolavirus expressing glycoprotein infected in human A549 cells assessed as inhibition of viral entry incubated for 48 hrs by Neolite reporter gene assay; format: functional, organism-based; conditions: A549, 48 h
# Tai Forest ebolavirus = experiment: Antiviral activity against pseudotyped Tai Forest ebolavirus expressing glycoprotein infected in human A549 cells assessed as inhibition of viral entry incubated for 48 hrs by Neolite reporter gene assay; format: functional, organism-based; conditions: A549, 48 h
# Influenza A virus = experiment: Antiviral activity against pseudotyped Influenza A virus A/Goose/Qinghai/59/05(H5N1) infected in human A549 cells assessed as inhibition of viral entry incubated for 48 hrs by Neolite reporter gene assay; format: functional, organism-based
# [5] = system: Vesicular stomatitis virus; experiment: Antiviral activity against pseudotyped vesicular stomatitis virus expressing glycoprotein infected in human A549 cells assessed as inhibition of viral entry incubated for 48 hrs by Neolite reporter gene assay; format: functional, organism-based
# Ebolavirus [6] = experiment: Binding affinity to Ebolavirus glycoprotein by SPR analysis
Compound,EC50 (Ebolavirus [1]),EC50 (Marburgvirus),selectivity ratio [2],also measured
O=C(Nc1ccc(CN2CCOCC2)cc1)Nc1ccc(C23CC4CC(CC(C4)C2)C3)cc1,0.37 µM,2.58 µM,32,EC50 (Ebolavirus [3]): 0.7 µM; CC50 (HeLa): 16.6 µM; selectivity ratio [4]: 24
CC1CCN(c2ccc(NC(=O)c3ccc(CN4CCOCC4)cc3)cc2F)CC1,> 100 µM,> 100 µM,> 1,
O=C(Nc1csc(N2CCOCC2)n1)c1ccc(CN2CCOCC2)cc1,> 100 µM,> 100 µM,> 1,
CC1CCN(c2ccc(NC(=O)Nc3ccc(CN4CCOCC4)cc3)cc2C(F)(F)F)CC1,2.18 µM,3.49 µM,7,
CC1CCN(c2ccc(NC(=O)c3ccc(CN4CCOCC4)cc3)cn2)CC1,12.3 µM,24.4 µM,8,
CC1CC(C)CN(c2ccc(NC(=O)c3ccc(CN4CCOCC4)cc3)cc2C(F)(F)F)C1 (stereo not given),1.07 µM,5.34 µM,52,
O=C(c1ccc(CN2CCOCC2)cc1)N(c1ccccc1)c1ccccc1,6.72 µM,71.1 µM,> 15,
CC(C)(C)c1ccc(NC(=O)c2ccc(CN3CCOCC3)cc2)c(C(C)(C)C)c1,3.32 µM,17.1 µM,30,
CC(C)C1CCN(c2ccc(NC(=O)c3ccc(CN4CCOCC4)cc3)cc2C(F)(F)F)CC1,0.56 µM,5.64 µM,28,
CC1CCN(c2ccc(NC(=O)c3ccc(CN4C[C@@H]5C[C@H]4CO5)cn3)cc2C(F)(F)F)CC1,0.29 µM,8.23 µM,345,
CN1CCN(c2ccc(NC(=O)c3ccc(CN4CCOCC4)cc3)cc2C(F)(F)F)CC1,0.97 µM,3.93 µM,37,
CC1CCN(c2ccc(NC(=O)c3ccc(CN4C[C@@H]5C[C@H]4CO5)cc3)cc2C(F)(F)F)CC1,0.23 µM,1.34 µM,86,
O=C(Nc1ccc(N2CC3(CCC3)C2)c(C(F)(F)F)c1)c1ccc(CN2CCOCC2)cc1,0.86 µM,3.65 µM,116,
O=C(Nc1ccc(N2CCC3(CCC3)CC2)c(C(F)(F)F)c1)c1ccc(C(=O)N2C[C@H]3C[C@@H]2CO3)nc1,0.23 µM,3.89 µM,201,EC50 (Zaire ebolavirus): 0.23 µM; EC50 (Sudan ebolavirus): 1.61 µM; EC50 (Bundibugyo virus): 1.19 µM; EC50 (Reston ebolavirus): 0.26 µM; EC50 (Tai Forest ebolavirus): 0.13 µM; EC50 (Ebolavirus [3]): 0.89 µM; CC50 (HeLa): 43.4 µM; selectivity ratio [4]: 49; inhibition (Influenza A virus): Weak_effect; inhibition [5]: Weak_effect
CC1(C)CCN(c2ccc(NC(=O)c3ccc(CN4CCOCC4)cc3)cc2C(F)(F)F)C1,0.19 µM,1.45 µM,321,
O=C(Nc1ccc(N2CCC3(CCC3)CC2)c(C(F)(F)F)c1)c1ccc(CN2CCOCC2)cc1,0.09 µM,1.11 µM,209,
CC1CCN(c2ccc(C(=O)Nc3ccc(CN4CCOCC4)cc3)cc2C(F)(F)F)CC1,1.03 µM,2.9 µM,23,
O=C(Nc1ccc(C23CC4CC(CC(C4)C2)C3)cc1)c1ccc(CN2CCOCC2)cc1,0.15 µM,8.07 µM,495,
CC1CCCN(c2ccc(NC(=O)c3ccc(CN4CCOCC4)cc3)cc2C(F)(F)F)C1 (stereo not given),0.3 µM,3.06 µM,142,

Compound,EC50 (Ebolavirus [1]),EC50 (Marburgvirus),selectivity ratio [2],also measured
CC1(C)CCCN(c2ccc(NC(=O)c3ccc(CN4CCOCC4)cc3)cc2C(F)(F)F)C1,0.37 µM,6.58 µM,107,
O=C(Nc1ccc(N2CCOCC2)c(C(F)(F)F)c1)c1ccc(CN2CCOCC2)cc1,0.49 µM,6.97 µM,69,
O=C(N[C@]12CC3CC(C[C@@H](C3)C1)C2)c1ccc(CN2CCOCC2)cc1,6.27 µM,53.8 µM,16,
O=C(Nc1ccc(Cl)c(C(F)(F)F)c1)c1ccc(CN2CCOCC2)cc1,8.09 µM,5.6 µM,6,
CC1CCN(c2ccc(N(C)C(=O)c3ccc(CN4CCOCC4)cc3)cc2C(F)(F)F)CC1,1.55 µM,7.56 µM,33,
CC1CCN(c2ccc(N(CC3CC3)C(=O)c3ccc(CN4CCOCC4)cc3)cc2C(F)(F)F)CC1,1.82 µM,4.61 µM,22,
CC(C)(C)C1CCN(c2ccc(NC(=O)c3ccc(CN4CCOCC4)cc3)cc2C(F)(F)F)CC1,1.45 µM,6.15 µM,13,
CC1CCN(c2ccc(NC(=O)c3ccc(CN4C[C@@H]5C[C@H]4CO5)nc3)cc2C(F)(F)F)CC1,0.31 µM,3.43 µM,149,Activity (Ebolavirus [6]): Active
O=C(Nc1ccc(C(F)(F)F)c(Cl)c1)c1ccc(CN2CCOCC2)cc1,22.1 µM,3.91 µM,1,
O=C(Nc1ccc(N2CCC3(CCC3)CC2)c(C(F)(F)F)c1)c1ccc(CN2C[C@H]3C[C@@H]2CO3)nc1,0.21 µM,0.88 µM,,EC50 (Zaire ebolavirus): 0.21 µM; EC50 (Sudan ebolavirus): 0.42 µM; EC50 (Bundibugyo virus): 0.96 µM; EC50 (Reston ebolavirus): 0.4 µM; EC50 (Tai Forest ebolavirus): 0.17 µM; EC50 (Ebolavirus [3]): 0.52 µM; CC50 (HeLa): 13.4 µM; inhibition (Influenza A virus): Weak_effect; inhibition [5]: Weak_effect
O=C(Nc1ccc(C23CC4CC(CC(C4)C2)C3)cc1)c1ccc(CN2C[C@@H]3C[C@H]2CO3)cc1,0.2 µM,1.33 µM,77,EC50 (Ebolavirus [3]): 0.61 µM; CC50 (HeLa): 10.3 µM; selectivity ratio [4]: 17; Activity (Ebolavirus [6]): Active
O=C(Nc1ccc(SC(F)(F)F)c(Cl)c1)c1ccc(CN2CCOCC2)cc1,4.95 µM,8.43 µM,5,
O=C(Nc1ccc(N2CCC2)c(C(F)(F)F)c1)c1ccc(CN2CCOCC2)cc1,14.9 µM,42.4 µM,6,
O=C(Nc1ccc(C23CC4CC(CC(O)(C4)C2)C3)cc1)c1ccc(CN2CCOCC2)cc1,64.6 µM,25 µM,,
CC1CCN(c2ccc(NC(=O)c3ccc(CN4CCOCC4)nc3)cc2C(F)(F)F)CC1,0.4 µM,1.12 µM,138,
O=C(Nc1ccc(N2CCCC2)c(C(F)(F)F)c1)c1ccc(CN2CCOCC2)cc1,3.3 µM,14.9 µM,18,
O=C(Nc1ccc(CN2CCOCC2)cc1)c1ccc(Cl)c(C(F)(F)F)c1,7.76 µM,5.66 µM,9,
CC1CCN(c2ccc(NC(=O)c3ccc(CN4CCOCC4)cc3)cc2Cl)CC1,4.32 µM,18.5 µM,6,
O=C(Nc1ccc(C23CC4CC(CC(C4)C2)C3)cc1)c1ccc(CN2C[C@@H]3C[C@H]2CO3)nc1,0.23 µM,2.8 µM,258,Activity (Ebolavirus [6]): Active
